Values joined by “and” are separate entries in the source; they are usually repeats but may differ in a detail not shown here. Equal values may be shown once.
Test: wn = mass fraction of the nth substance listed
Details: discharge crucible method; for mass density / viscosity: 101 kPa, Liquid

[Zn] [zinc] + [Ga]
Details | mass density | surface tension liquid-gas | viscosity
323 K, w1 = 0.036 | 6081 kg/m3 | 722.9 mN/m | 1.576 mPa·s
373 K, w1 = 0.036 | 6049 kg/m3 | 719.2 mN/m | 1.336 mPa·s
423 K, w1 = 0.036 | 6018 kg/m3 | 715.6 mN/m | 1.139 mPa·s
423 K, w1 = 0.25 | 6205 kg/m3 | 733 mN/m | 2.596 mPa·s
473 K, w1 = 0.036 | 5989 kg/m3 | 712 mN/m | 1.018 mPa·s
473 K, w1 = 0.25 | 6175 kg/m3 | 728.9 mN/m | 2.037 mPa·s
523 K, w1 = 0.036 | 5956 kg/m3 | 708.4 mN/m | 0.924 mPa·s
523 K, w1 = 0.25 | 6146 kg/m3 | 723.5 mN/m | 1.733 mPa·s
573 K, w1 = 0.036 | 5929 kg/m3 | 704.9 mN/m | 0.845 mPa·s
573 K, w1 = 0.25 | 6115 kg/m3 | 718.9 mN/m | 1.529 mPa·s
573 K, w1 = 0.5 | 6355 kg/m3 | 748.5 mN/m | 2.861 mPa·s
623 K, w1 = 0.036 | 5896 kg/m3 | 701.2 mN/m | 0.779 mPa·s
623 K, w1 = 0.25 | 6079 kg/m3 | 714.6 mN/m | 1.375 mPa·s
623 K, w1 = 0.5 | 6323 kg/m3 | 739.8 mN/m | 2.394 mPa·s
623 K, w1 = 0.75 | 6584 kg/m3 | 773.5 mN/m | 3.588 mPa·s
673 K, w1 = 0.036 | 5866 kg/m3 | 697.7 mN/m | 0.736 mPa·s
673 K, w1 = 0.25 | 6052 kg/m3 | 709.7 mN/m | 1.261 mPa·s
673 K, w1 = 0.5 | 6302 kg/m3 | 733.3 mN/m | 2.112 mPa·s
673 K, w1 = 0.75 | 6557 kg/m3 | 764.1 mN/m | 3.019 mPa·s
673 K, w1 = 0.9 | 6721 kg/m3 | 792.3 mN/m | 3.809 mPa·s
723 K, w1 = 0.036 | 5836 kg/m3 | 693.8 mN/m and 694.3 mN/m | 0.709 mPa·s and 0.699 mPa·s
723 K, w1 = 0.25 | 6024 kg/m3 and 6025 kg/m3 | 705.2 mN/m and 705.5 mN/m | 1.148 mPa·s and 1.159 mPa·s
723 K, w1 = 0.5 | 6277 kg/m3 and 6276 kg/m3 | 725.3 mN/m | 1.875 mPa·s and 1.871 mPa·s
723 K, w1 = 0.75 | 6537 kg/m3 and 6536 kg/m3 | 753.4 mN/m and 754 mN/m | 2.625 mPa·s
723 K, w1 = 0.9 | 6699 kg/m3 and 6700 kg/m3 | 780.5 mN/m and 780.4 mN/m | 3.225 mPa·s and 3.241 mPa·s
723 K, w1 = 1 | 6831 kg/m3 | 812.1 mN/m | 3.721 mPa·s
773 K, w1 = 0.036 | 5806 kg/m3 | 690.8 mN/m | 0.662 mPa·s
773 K, w1 = 0.25 | 5998 kg/m3 | 700.4 mN/m | 1.098 mPa·s
773 K, w1 = 0.5 | 6249 kg/m3 | 717.7 mN/m | 1.693 mPa·s
773 K, w1 = 0.75 | 6512 kg/m3 | 744.6 mN/m | 2.323 mPa·s
773 K, w1 = 0.9 | 6679 kg/m3 | 768.7 mN/m | 2.813 mPa·s
823 K, w1 = 0.9 | 6657 kg/m3 | 755.5 mN/m | 2.517 mPa·s

Source: the NIST ThermoML archive (doi:10.1016/j.fluid.2017.03.025)
